Assay results reported in US20260373248A1, “DEGRADABLE PEPTOIDS” (Medici Therapeutics, Inc., priority 2023, published 2026).
Starred links: 1 amine or outer side, 2 acyl side, 3 side chain; linkers in the order of their positions; H or OH if unused. Non-standard residues stand in square brackets, D forms with d. Residues, ends and D or L forms follow the SMILES beside them. *: point of attachment. N(3-lauroyloxypropyl)Gly = CCCCCCCCCCCC(=O)OCCCNCC(=O)O; Gly(N-(CH2)3O-octanoyl) = CCCCCCCC(=O)OCCCNCC(=O)O; N(3-imidazol-1-ylpropyl)Gly = O=C(O)CNCCCn1ccnc1; Gly(N-3-morpholinopropyl) = O=C(O)CNCCCN1CCOCC1; N(2-ethylhexyl)Gly = CCCCC(CC)CNCC(=O)O; X1 = CCCCC(CC)CSSCCN(CC(=O)[*:2])[*:1]; X3 = CCCCCCCCSSCCN(CC(=O)[*:2])[*:1]; N(CH(CH2OH)2)Gly = O=C(O)CNC(CO)CO; N(octyl)Gly = CCCCCCCCNCC(=O)O; NDecylGly = CCCCCCCCCCNCC(=O)O; For = O=C*

Tests used:
hEPO = assay: Quantification of hEPO in serum after IV injection of mRNA (Human EPO ELISA); type: in vivo; details: Balb/c mice, 2.5 μg mRNA IV, serum after 6 hours
Experimental: Balb/c mice were treated with 2.5 μg of mRNA coding for human erythropoiten via IV injection according to a similar method as in Example 4. hEPO protein in the serum was quantified after 6 hours using the Human EPO ELISA Kit from Invitrogen (catalog #BMS2035-2). Wash buffer (PBS with 1% tween 20) and assay buffer (PBS with 1% tween 20, 10% BSA) were prepared from a 20× concentrate with milli-Q water. Serum samples were diluted with PBS according to expected EPO concentration, with a 50× dilution for low expression samples and up to a 30,000× dilution for samples expected to have high expression. Microwell strips were washed in a plate washer with wash buffer and tapped on an absorbent pad to remove excess buffer. 100 μL of sample diluent were added to each well that will be used for the standard curve. 50 μL of sample diluent was added to each sample well.
The standard curve was prepared by reconstituting the human erythropoietin standard by adding the volume of water listed on the vial label. Standard was swirled gently and allowed to reconstitute for 10 minutes prior to use, then 100 μL is added to standard wells and mixed well. 100 μL from standard wells were then transferred to sample wells and mixed well. This was repeated 5 times to produce 2 columns of standard dilutions from 100 to 1.6 mIU/mL. 100 μL was discarded from the last microwells. The final 2 wells contained 100 μL of sample diluent and served as a blank. An external standard was also included to facilitate a mIU/mL conversion to ng/mL. The same serial dilution method was repeated starting with the external standard at 6.25 ng/mL. Once the standards were added, 50 μL of each sample was added in duplicate to the sample wells. Next, the biotin-conjugate was prepared by diluting 1:100 in assay buffer. 50 μL of biotin-conjugate was added to all wells and the plate was covered with a plate seal and shaken at room temperature for 1 hour. During the last few minutes of shaking, streptavidin-HRP was prepared by diluting 1:100 in assay buffer. The plate was washed on a plate washer and tapped on an absorbent pad to remove remaining wash buffer.
100 μL of the diluted streptavidin-HRP was added to each well and the plate was sealed and shaken for 15 minutes at room temperature. After 15 minutes, the plate seal was removed and the plate was washed on a plate washer and remaining wash buffer tapped out on an absorbent pad. 100 μL of TMB substrate was added to all wells and the plate was incubated for 10 minutes at room temperature out of direct light. Color development was checked every few minutes and the assay was stopped when the highest standard was dark blue. The reaction was stopped by pipetting 100 μL of stop solution into each well. Immediately after stop solution was added, the plate was gently tapped to ensure the solution was mixed. Absorbance was then read at 450 nm for each well. A standard curve was plotted for both the kit-provided standards (mIU/mL) and the external standard (ng/mL) and fit using Prism. Sample absorbances that fell within the standard curve were interpolated and adjusted for dilution (including a 2× assay dilution). Samples that were not within the standard curve were repeated at an adjusted dilution.

[1] = Delivery vehicle size and polydispersity by dynamic light scattering; type: physicochemical
Experimental: Delivery vehicles were formulated by rapid microfluidic mixing using a high throughput microfluidic system. Briefly, ethanol solutions containing peptoid, DSPC, Cholesterol, DMG-PEG2000 at weight ratio of 20:1.79:7.16:1.84, were mixed with 10 mM sodium citrate buffer (pH 5.0) containing synthesized mRNA at a ratio of 1:3 by volume. Peptoid based LNPs were subsequently dialyzed against 1-2 liters of tris-sucrose buffer (TS7, pH 7.4) overnight at 4 °C. Delivery vehicle size and polydispersity (PDI) was measured by dynamic light scattering in PBS.
(§1) Degradable peptoids described herein were formulated as various formulations described in Table 3 according to the procedure described in Example 2. Particle size was characterized as described in Example 2, and […] encapsulation of mRNA was determined as described in Example 3.

mRNA = mRNA encapsulation (modified Quant-iT RiboGreen assay); type: physicochemical; details: for mean percent encapsulation of RNA: RiboGreen, without vs with Triton X-100; for % Encapsulation: mRNA
Experimental: The mRNA concentration and the percentage of encapsulated mRNA were determined using fluorescent-based Quant-iT RiboGreen RNA Reagent Kit (Life Technologies, Waltham, MA) as described previously. To determine the mRNA concentration, PNPs was incubated with […] for 10 min to release entrapped mRNA, followed by addition of RiboGreen RNA reagent. The fluorescence intensity of mRNA-RiboGreen reagent complex (excitation at 485 nm and emission at 530 nm) was detected using a microplate reader. The ratio of fluorescence without and with Triton X-100 were used to calculate the percentage of encapsulated mRNA.
as §1

firefly luciferase = assay: In vivo firefly luciferase expression after intravenous injection of fLuc mRNA delivery vehicles (IVIS imaging); parameters: species or system female Balb/c mice; details: for Total Flux: mice, 2.5 ug fLuc mRNA intravenously, 6 hours post-injection; for Total Flux (luciferase expression): fLuc mRNA, intravenous, Balb/c mice
Experimental: (§2) All animal studies were conducted under accreditation by the California State Department of Public Health and under supervision of IACUC and Veterinarian Supervision. For imaging studies, female Balb/c mice (6-8 weeks old) were obtained and acclimatized for a minimum of 3 days prior to experiments. The animals were maintained on a 12 hour light cycle in a temperature and humidity controlled room. A daily health check was performed as well as food and water check. For dosing, mice were injected with 2.5 ug fLuc mRNA-containing Nutshells intravenously in 100 μL total injection value. At 6 hours post-injection, mice were anesthetized with isoflurane, injected IP with 30 mg/mL D-luciferin at a dose of 10 μL per gram bodyweight intraperitoneally. Imaging was done 10 minutes post D-luciferin injection using an IVIS Spectrum Imaging System (Caliper Life Sciences). Immediately after in vivo imaging, mice were terminally bled by cardiac puncture and euthanized. The organs of interest were harvested, placed in black 24-well plates, and imaged. Living Image software (Perkin Elmer) was used to quantify the total photon flux in regions of interest.
Luciferase expression in these formulations was also determined as described in Example 4.

luciferase = assay: Luciferase expression after local (intramuscular or subcutaneous) administration of mRNA; type: in vivo; details: mRNA 0.01 mpk, 6 hours; for IM Flux: intramuscular; for SC Flux: subcutaneous
Experimental: as §2
Aminolipidated peptoids were also effective for local administration of mRNA through subcutaneous (S.C.) or intramuscular (I.M.) routes of administration. For these examples, mRNA was administered at a dose of 0.1 mpk for intratomoral, or 0.01 mpk for subcutaneous and intramuscular administration, and the resulting bioluminescence quantified after 6 hours according to a similar procedure as described in Example 4.

[2] = DLS in PBS, peptoid:DSPC:Cholesterol:DMG-PEG2000 weight ratio 20:1.79:7.16:1.84, mRNA

CCCCCCCCCCN(C=O)CC(=O)N(CCCOC(=O)CCCCCCC)CC(=O)N(CC(=O)N(CCCn1ccnc1)CC(=O)N(CC(=O)N(CCCOC(=O)CCCCCCC)CC(=O)N(CCCCCCCCCC)CC(N)=O)CC(CC)CCCC)CC(CC)CCCC (centres unmarked) [Compound 114] (For-[NDecylGly][Gly(N-(CH2)3O-octanoyl)][N(2-ethylhexyl)Gly][N(3-imidazol-1-ylpropyl)Gly][N(2-ethylhexyl)Gly][Gly(N-(CH2)3O-octanoyl)][NDecylGly]-NH2)
hEPO (hEPO): 23.7 ng/mL | PDI [1, 2]: 0.245 | Particle Size [1, 2]: 119.7 nm | mean percent encapsulation of RNA (mRNA): 40.7% | Total Flux (firefly luciferase): 2.06E+08 p/s | IM Flux (luciferase): 9.30E+07 p/s | SC Flux (luciferase): 1.03E+08 p/s

CCCCCCCC(=O)OCCCN(C=O)CC(=O)N(CCCOC(=O)CCCCCCC)CC(=O)N(CCc1ccccc1)CC(=O)N(CC(=O)N(CCCn1ccnc1)CC(=O)N(CCCOC(=O)CCCCCCC)CC(=O)N(CCc1ccccc1)CC(=O)N(CCCOC(=O)CCCCCCC)CC(=O)N(CC(N)=O)CC(CC)CCCC)CC(CC)CCCC (centres unmarked) [Compound 123]
hEPO (hEPO): 172 ng/mL | PDI [1, 2]: 0.201 | Particle Size [1, 2]: 118.1 nm | mean percent encapsulation of RNA (mRNA): 56.3% | IM Flux (luciferase): 6.45E+06 p/s | SC Flux (luciferase): 1.01E+07 p/s

CCCCCCCCCCCC(=O)OCCCN(C=O)CC(=O)N(CCCOC(=O)CCCCCCCCCCC)CC(=O)N(CC(=O)N(CCCN1CCOCC1)CC(=O)N(CC(=O)N(CCCOC(=O)CCCCCCCCCCC)CC(=O)N(CCCOC(=O)CCCCCCCCCCC)CC(N)=O)CC(CC)CCCC)CC(CC)CCCC (centres unmarked) [Compound 91] (For-[N(3-lauroyloxypropyl)Gly][N(3-lauroyloxypropyl)Gly][N(2-ethylhexyl)Gly][Gly(N-3-morpholinopropyl)][N(2-ethylhexyl)Gly][N(3-lauroyloxypropyl)Gly][N(3-lauroyloxypropyl)Gly]-NH2)
hEPO (hEPO): 17.4 ng/mL | IM Flux (luciferase): 2.44E+08 p/s | SC Flux (luciferase): 4.22E+07 p/s

CCCCCCCC(=O)OCCCN(C=O)CC(=O)N(CCCOC(=O)CCCCCCC)CC(=O)N(CCc1ccccc1)CC(=O)N(CC(=O)N(CCCN1CCOCC1)CC(=O)N(CCCOC(=O)CCCCCCC)CC(=O)N(CCc1ccccc1)CC(=O)N(CCCOC(=O)CCCCCCC)CC(=O)N(CC(N)=O)CC(CC)CCCC)CC(CC)CCCC (centres unmarked) [Compound 125]
hEPO (hEPO): 13.4 ng/mL | PDI [1, 2]: 0.111 | Particle Size [1, 2]: 86.2 nm | mean percent encapsulation of RNA (mRNA): 82.1% | Total Flux (firefly luciferase): 2.12E+09 p/s | IM Flux (luciferase): 9.45E+07 p/s | SC Flux (luciferase): 8.55E+07 p/s

CCCCCCCC(=O)OCCCN(CC(=O)N(CCCOC(=O)CCCCCCC)CC(=O)N(CCSSCC(CC)CCCC)CC(=O)N(CCCOC(=O)CCCCCCC)CC(=O)N(CCCOC(=O)CCCCCCC)CC(=O)N(CCSSCC(CC)CCCC)CC(N)=O)C(=O)CNC(CO)CO (centres unmarked) [Compound 128] (H-[N(CH(CH2OH)2)Gly][Gly(N-(CH2)3O-octanoyl)][Gly(N-(CH2)3O-octanoyl)][X1][Gly(N-(CH2)3O-octanoyl)][Gly(N-(CH2)3O-octanoyl)][X1]-NH2)
PDI [1, 2]: 0.098 | Particle Size [1, 2]: 62.1 nm | Particle Size ([1]; formulation recipe D22): 62.1 nm | Particle Size ([1]; formulation recipe R3): 77.5 nm | Particle Size ([1]; formulation recipe R4): 73.6 nm | Particle Size ([1]; formulation recipe R7): 82.7 nm | Particle Size ([1]; formulation recipe R8): 78.9 nm | mean percent encapsulation of RNA (mRNA): 89.5% | % Encapsulation (mRNA; formulation recipe D22): 89.5% | % Encapsulation (mRNA; formulation recipe R3): 89.5% | % Encapsulation (mRNA; formulation recipe R4): 87.7% | % Encapsulation (mRNA; formulation recipe R7): 92.5% | % Encapsulation (mRNA; formulation recipe R8): 94.4% | Total Flux (luciferase expression) (firefly luciferase; formulation recipe D22): 4.01E+09 p/s | Total Flux (luciferase expression) (firefly luciferase; formulation recipe R3): 5.39E+08 p/s | Total Flux (luciferase expression) (firefly luciferase; formulation recipe R4): 5.47E+08 p/s | Total Flux (luciferase expression) (firefly luciferase; formulation recipe R7): 1.09E+09 p/s | Total Flux (luciferase expression) (firefly luciferase; formulation recipe R8): 5.73E+08 p/s | Total Flux (firefly luciferase): 4.01E+09 p/s | IM Flux (luciferase): 4.20E+08 p/s | SC Flux (luciferase): 6.68E+08 p/s

CCCCCCCC(=O)OCCCN(CC(=O)N(CCc1ccccc1)CC(=O)N(CC(=O)N(CCCN1CCOCC1)CC(=O)N(CC(=O)N(CCc1ccccc1)CC(=O)N(CCCOC(=O)CCCCCCC)CC(=O)N(CC(N)=O)CC(CC)CCCC)CC(CC)CCCC)CC(CC)CCCC)C(=O)CN(C=O)CC(CC)CCCC (centres unmarked) [Compound 124]
PDI [1, 2]: 0.118 | Particle Size [1, 2]: 85.2 nm | mean percent encapsulation of RNA (mRNA): 93.5% | Total Flux (firefly luciferase): 6.20E+08 p/s | IM Flux (luciferase): 4.35E+07 p/s | SC Flux (luciferase): 4.34E+07 p/s

CCCCCCCCSSCCN(CC(=O)N(CCCN1CCOCC1)CC(=O)N(CCSSCCCCCCCC)CC(=O)N(CCCOC(=O)CCCCCCC)CC(=O)N(CCCOC(=O)CCCCCCC)CC(N)=O)C(=O)CN(CCCOC(=O)CCCCCCC)C(=O)CN(C=O)CCCOC(=O)CCCCCCC [Compound 134] (For-[Gly(N-(CH2)3O-octanoyl)][Gly(N-(CH2)3O-octanoyl)][X3][Gly(N-3-morpholinopropyl)][X3][Gly(N-(CH2)3O-octanoyl)][Gly(N-(CH2)3O-octanoyl)]-NH2)
PDI [1, 2]: 0.062 | Particle Size [1, 2]: 73.8 nm | mean percent encapsulation of RNA (mRNA): 83.7% | Total Flux (firefly luciferase): 5.63E+08 p/s | IM Flux (luciferase): 6.40E+07 p/s | SC Flux (luciferase): 1.60E+08 p/s

CCCCCCCCN(CC(=O)N(CCCOC(=O)CCCCCCC)CC(=O)N(CCSSCC(CC)CCCC)CC(=O)N(CCCCCCCC)CC(=O)N(CCCOC(=O)CCCCCCC)CC(=O)N(CCSSCC(CC)CCCC)CC(N)=O)C(=O)CNC(CO)CO (centres unmarked) [Compound 127] (H-[N(CH(CH2OH)2)Gly][N(octyl)Gly][Gly(N-(CH2)3O-octanoyl)][X1][N(octyl)Gly][Gly(N-(CH2)3O-octanoyl)][X1]-NH2)
PDI [1, 2]: 0.093 | Particle Size [1, 2]: 84.1 nm | mean percent encapsulation of RNA (mRNA): 84.2% | Total Flux (firefly luciferase): 6.54E+09 p/s | IM Flux (luciferase): 3.36E+08 p/s | SC Flux (luciferase): 1.92E+08 p/s
